Data reported in patent US12213482B2, “Fungicide enhancers effective for treating plants infected with fungal pathogens” (Board of Regents, The University of Texas System, priority 2015, dated 2025).

Assays:
[1] = system: Mycosphaerella graminicola isolate FLU4-02; assay: Fungicide sensitivity testing by OD in 96 well plates, epoxiconazole plus enhancers; assay type: cell-based; conditions: Zymoseptoria tritici, Enhancer Concentration 0 μg ml^−1 (epoxiconazole alone; one value per enhancer series)
[2] = system: Septoria tritici isolate G3-03; assay: Fungicide sensitivity testing by OD in 96 well plates, fungicides plus Enhancer A.I.1; assay type: cell-based
[3] = Enhancer A.I.1 Concentration 0 μg ml^−1
[4] = Enhancer A.I.1 Concentration 0.003 μg ml^−1
[5] = Enhancer A.I.1 Concentration 0.016 μg ml^−1
[6] = Enhancer A.I.1 Concentration 0.08 μg ml^−1
[7] = Enhancer A.I.1 Concentration 0.4 μg ml^−1
[8] = Enhancer A.I.1 Concentration 2.0 μg ml^−1
[9] = Enhancer A.I.1 Concentration 10 μg ml^−1

| Compound | EC50 [1] | EC50 of the fungicide [2, 3] | EC50 of the fungicide [2, 4] | EC50 of the fungicide [2, 5] | EC50 of the fungicide [2, 6] | EC50 of the fungicide [2, 7] | EC50 of the fungicide [2, 8] | EC50 of the fungicide [2, 9] |
| --- | --- | --- | --- | --- | --- | --- | --- | --- |
| Fc1ccc([C@]2(Cn3cncn3)O[C@H]2c2ccccc2Cl)cc1 (racemic) [Epoxiconazole] | 0.091 µg/mL | 0.142 µg/mL | 0.142 µg/mL | 0.141 µg/mL | 0.145 µg/mL | 0.06 µg/mL | 0.008 µg/mL | 0.004 µg/mL |
| CO/C=C(/C(=O)OC)c1ccccc1Oc1cc(Oc2ccccc2C#N)ncn1 [Azoxystrobin] | – | 7.210 µg/mL | 7.339 µg/mL | 7.071 µg/mL | 6.914 µg/mL | 6.958 µg/mL | 5.157 µg/mL | 2.816 µg/mL |
| COC(=O)Nc1nc2ccccc2[nH]1 [Carbendazim] | – | >50 µg/mL | >50 µg/mL | >50 µg/mL | >50 µg/mL | >50 µg/mL | >50 µg/mL | >50 µg/mL |
| N#Cc1c(Cl)c(Cl)c(Cl)c(C#N)c1Cl [Chlorothalonil] | – | 0.370 µg/mL | 0.369 µg/mL | 0.357 µg/mL | 0.369 µg/mL | 0.335 µg/mL | 0.36 µg/mL | 0.364 µg/mL |
| Cc1cc(C2CC2)nc(Nc2ccccc2)n1 [Cyprodinil] | – | 3.055 µg/mL | 3.135 µg/mL | 2.995 µg/mL | 2.838 µg/mL | 3.244 µg/mL | 4.046 µg/mL | 4.220 µg/mL |
